Experimental findings from PMC6887851, “A Chemical-Intervention Strategy To Circumvent Peptide Hydrolysis by D-Stereoselective Peptidases” (Journal of Medicinal Chemistry, 2019) are described below.

Molecules are shown by their SMILES. Where a SMILES comes first, the peptide text is derived from it. [ ]: non-standard residue; d: D form. The star is where a group is joined. dDab = NCC[C@@H](N)C(=O)O; Octanoyl = CCCCCCCC(=O)*; Dab = NCC[C@H](N)C(=O)O

Data set [1] deals with S. aureus NCTC 10788. In kind it is cell-based, Staphylococcus aureus. To be noted: NCTC 10788, 18 h. As to the method:
(§1) Minimum inhibitory concentrations (MICs) were determined according to Clinical and Standards Laboratory Institute (CLSI) guidelines. Briefly, peptides were dissolved in Muller–Hinton broth (MHB) and serial dilutions made across a 96-well plate. Each well was inoculated with a suspension of the required bacterial strain to reach a final inoculum of 5 × 10^5 colony forming units per mL. The MIC was taken as the lowest concentration with no visible (cloudy suspension) growth after 18 h. The antimicrobial activity of each peptide was determined in duplicate in three independent experiments and found to be consistent across all experiments.

The subject of data set [2] is D-peptidase BogQ. In words: Peptide hydrolysis assay with BogQ (UPLC–MS cleavage ratio). In kind it is in vitro ADME. To be noted: BogQ 20 nM, substrate 50 μM, 25% PBS buffer pH 7.4, 37 °C, end-point after 1 h incubation, cleavage ratio by UPLC–MS, two independent experiments. As for the experimental part:
(§2) For expression of D-peptidases, the recombinant strain E. coli BL21 carrying pET-28a-bogQ or pET-24a-triFpep was cultured overnight at 37 °C in LB medium. This was diluted 1:100 into 100 mL of LB medium containing 50 μg/mL kanamycin and incubated at 37 °C until OD600 = 0.4–0.6 was reached. The culture was incubated at 15 °C for 30 min, and isopropyl β-D-1-thiogalactopyranoside was added to a final concentration of 200 μM.[17] The target proteins purified using Ni-NTA purification. The assay mixture (total volume 30 μL in 25% PBS buffer, pH 7.4), containing purified protein (BogQ, 20 nM or TriFpep 200 nM) and synthetic analogues (50 μM), was incubated for 1 h (BogQ) or 24 h (TriFpep) at 37 °C. Reactions were quenched with three volumes of cold methanol (90 μL) and centrifuged at 15 000 rpm for 10 min to precipitate protein. The supernatant (2 μL) was subjected to UPLC–MS analysis for the determination of cleavage ratios.[17] Assays were repeated in two independent experiments and results consistent across both.

The subject of data set [3] is TriFpep (peptidase domain of D-peptidase TriF). In words: Peptide hydrolysis assay with TriFpep (UPLC–MS cleavage ratio). The format is in vitro ADME, Paenibacillus polymyxa CICC10580. The note with it: Paenibacillus polymyxa; TriFpep 200 nM, substrate 50 μM, 25% PBS buffer pH 7.4, 37 °C, end-point after 24 h incubation, cleavage ratio by UPLC–MS, two independent experiments. As to the method:
Having determined that N- or α-methylation of position 9 in the tridecaptins substantially improves resistance to hydrolysis by BogQ, we next tested if modifying the 6 position could overcome TriF hydrolysis at D-Trp5. TriFpep, the soluble periplasmic peptidase domain of TriF, was used in these assays. […] Oct-TriA2(6-Sar) (20) and Oct-TriA2(6-Aib) (21) were synthesized and found to be completely resistant to TriF and retain strong activity (3.13 μg/mL) against E. coli. […] Discovering that a simple substitution of Ser6 with Sar or Aib provides complete TriF resistance with negligible loss in activity is a welcome development.
as §2, with “Reactions were quenched with three volumes of cold methanol (90 μL) and centrifuged at 15 000 rpm for 10 min to precipitate protein. The supernatant (2 μL) was subjected to UPLC–MS analysis for the determination of cleavage ratios.[17] Assays were repeated in two independent experiments and results consistent across both.” left out

Data set [4] relates to E. coli NCTC 12241. The format is cell-based, Escherichia coli. The note with it: NCTC 12241, 18 h. As to the method: as §1

For `CCCCCCCC(=O)N[C@@H](C(=O)N[C@@H](CCN)C(=O)NCC(=O)N[C@H](CO)C(=O)N[C@H](Cc1c[nH]c2ccccc12)C(=O)N[C@@H](CO)C(=O)N[C@@H](CCN)C(=O)N[C@H](CCN)C(=O)N[C@@H](Cc1ccccc1)C(=O)N[C@@H](CCC(=O)O)C(=O)N[C@H](C(=O)N[C@@H](C(=O)N[C@@H](C)C(=O)O)C(C)C)C(C)C)C(C)C` [compound 14, Oct-TriA2 (2-Dab)] (Octanoyl-[dV][Dab]G[dS][dW]S[Dab][dDab]FEV[dV]A-OH), the “MIC (μg/mL) Sa” value in data set [1] is over 50 µg/mL.

Turning to `CCCCCCCC(=O)N[C@@H](C(=O)N[C@H](CCN)C(=O)NCC(=O)N[C@H](CO)C(=O)N[C@H](Cc1c[nH]c2ccccc12)C(=O)N[C@@H](CO)C(=O)N[C@@H](CCN)C(=O)N[C@H](CCN)C(=O)NC(C)(Cc1ccccc1)C(=O)N[C@@H](CCC(=O)O)C(=O)N[C@H](C(=O)N[C@@H](C(=O)N[C@@H](C)C(=O)O)C(C)C)C(C)C)C(C)C` (some centres unmarked) [compound 16, Oct-TriA2 (9-αMePhe)], the “MIC (μg/mL) Sa” value in data set [1] is over 50 µg/mL. In data set [2], the metabolised at 1 h, 50 μM was 39%.

In the case of `CCCCCCCC(=O)N[C@@H](C(=O)N[C@H](CCN)C(=O)NCC(=O)N[C@H](CO)C(=O)N[C@H](Cc1c[nH]c2ccccc12)C(=O)N(C)CC(=O)N[C@@H](CCN)C(=O)N[C@H](CCN)C(=O)NC(C)(Cc1ccccc1)C(=O)N[C@@H](CCC(=O)O)C(=O)N[C@H](C(=O)N[C@@H](C(=O)N[C@@H](C)C(=O)O)C(C)C)C(C)C)C(C)C` (some centres unmarked) [compound 23, Oct-TriA2 (6-Sar, 9-αMePhe)], the metabolised at 24 h in data set [3] amounted to 0%. In data set [1], the “MIC (μg/mL) Sa” value was over 50 µg/mL. Further, the metabolised at 1 h, 50 μM in data set [2] worked out at 39%. In data set [4], the “MIC (μg/mL) Ec” value is over 50 µg/mL.

In the case of `CCCCCCCC(=O)N[C@@H](C(=O)N[C@H](CCN)C(=O)NCC(=O)N[C@H](CO)C(=O)N[C@H](Cc1c[nH]c2ccccc12)C(=O)N(C)CC(=O)N[C@@H](CCN)C(=O)N[C@H](CCN)C(=O)NC(C)(Cc1ccccc1)C(=O)N[C@@H](CCC(=O)O)C(=O)N[C@H](C(=O)N[C@@H](C(=O)N[C@@H](C)C(=O)O)[C@@H](C)CC)C(C)C)C(C)C` (some centres unmarked) [compound 25, Oct-TriA2 (6-Sar, 9-αMePhe)], the metabolised at 24 h in data set [3] came to 0%. Also, in data set [1], the “MIC (μg/mL) Sa” value is over 50 µg/mL. The metabolised at 1 h, 50 μM in data set [2] stood at 40%. Further, the “MIC (μg/mL) Ec” value in data set [4] is over 50 µg/mL.
